# Assay results as given in patent US20120022024A1, “ANTI-BACTERIAL COMPOSITIONS AND METHODS INCLUDING TARGETING VIRULENCE FACTORS OF STAPHYLOCOCCUS AUREUS” (priority 2009, published 2012).
# Counter-ions that a name gives are not always drawn. Like-named read-outs stand apart in the source and are kept apart here.
# Tests used:
# [1] = biological target: S. aureus CrtM (dehydrosqualene synthase) (Staphylococcus aureus, UniProt A9JQL9); assay: CrtM enzyme inhibition assay
# [2] = tested on: staphyloxanthin (STX) biosynthesis in S. aureus; assay: Staphyloxanthin biosynthesis inhibition assay; assay type: cell-based, Staphylococcus aureus
# Experimental: The question next arises: how potent are these compounds in inhibiting STX biosynthesis in S. aureus? We thus treated S. aureus bacteria with serially diluted compounds at 37° C. for 3 days, after which the STX pigment was extracted with methanol. Optical densities were measured at 450 nm and IC50 values for inhibition of pigment formation for each compound were calculated using a standard dose-response curve. The rank ordered IC50 values of the 38 compounds investigated are shown in Table 7 and dose-response curves of representative compounds are shown in FIG. 2.
# The S. aureus strain used was the WT clinical isolate (Pig1) (4). S. aureus was cultured in THB (1 mL) in the presence of inhibitor compounds for 72 h, in duplicate. Cells were then centrifuged and washed twice with PBS. STX was extracted with MeOH and the O.D. was determined at 450 nm using a Perkin Elmer MBA 2000 (Norwalk, Conn.) spectrophotometer.
# [3] = Staphylococcus aureus, read-out: IC50(STX)
# [4] = read-out: CrtM IC50 values, Table 4
# [5] = Staphylococcus aureus, 72 h, read-out: Staphyloxanthin IC50
# [6] = Staphylococcus aureus, read-out: IC50 (STX)
# [7] = Table 7, S. aureus, 37° C., 3 days, read-out: Staphyloxanthin IC50
# [8] = read-out: CrtM enzyme experimental activity IC50, Table 5
# Sequence of S. aureus CrtM (dehydrosqualene synthase) (A9JQL9 whole entry): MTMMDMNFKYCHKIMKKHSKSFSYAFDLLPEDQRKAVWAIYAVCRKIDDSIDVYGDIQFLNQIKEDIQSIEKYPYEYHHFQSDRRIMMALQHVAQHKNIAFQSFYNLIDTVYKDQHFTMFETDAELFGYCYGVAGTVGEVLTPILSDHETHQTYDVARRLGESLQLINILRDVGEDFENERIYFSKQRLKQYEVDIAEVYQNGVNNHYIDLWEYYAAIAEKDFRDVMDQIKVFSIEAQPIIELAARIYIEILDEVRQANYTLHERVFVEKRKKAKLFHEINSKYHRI
compound,measurement,setting,value
O=C(CCCCc1ccc(Oc2ccccc2)cc1)CP(=O)(O)O [compound 839],IC50,[1],1520 µM
same,IC50,[2]; [3],28 µM
O=C(CS(=O)(=O)O)NCCCc1cccc(Oc2ccccc2)c1 [compound 884],IC50,[1],171 µM
same,IC50,[2]; [3],15 µM
"O=P(O)(O)C(CCCc1cccc(Oc2ccc(C(F)(F)F)cc2)c1)S(=O)(=O)O (centres unmarked) [Compound 7, 1-Phosphono-4-[3-(4-trifluoromethylphenoxy)phenyl]butylsulfonic acid tripotassium salt]",IC50,[1]; [4],7.2 µM
same,IC50,[2]; [5],0.04 µM
O=C(CP(=O)(O)O)OCCCc1cccc(Oc2ccccc2)c1 [compound 887],IC50,[1],1190 µM
same,IC50,[2]; [3],1.5 µM
"CC(C)(C)c1ccc(Oc2cccc(CCCC(P(=O)(O)O)S(=O)(=O)O)c2)cc1 (centres unmarked) [Compound 25, 1-Phosphono-4-[3-(4-tert-butylphenoxy)phenyl]butylsulfonic acid tripotassium salt]",IC50,"[1]; read-out: IC50 (CrtM), Table 1",10.5 µM
same,IC50,[2]; [5],0.021 µM
same,IC50,[2]; [6],0.021 µM
CC(C)(C(=O)NCCCc1cccc(Oc2ccccc2)c1)P(=O)(O)O [compound 847],IC50,[1],204 µM
same,IC50,[2]; [3],> 500 µM
"CCCCc1ccc(-c2ccc(CCCC(P(=O)([O-])[O-])S(=O)(=O)[O-])cc2)cc1.[K+].[K+].[K+] (centres unmarked) [Compound 12, 1-Phosphono-4-[4-(4-butylphenyl)phenyl]butylsulfonic acid tripotassium salt]",IC50,[2]; [5],0.16 µM
O=C(CP(=O)(O)O)N(O)CCCc1cccc(Oc2ccc(Cl)c(Cl)c2)c1 [compound 927],IC50,[1],67.2 µM
same,IC50,[2]; [3],0.042 µM
O=C(CP(=O)(O)O)NCCCc1cccc(Oc2ccc(Cl)cc2)c1 [compound 926],IC50,[1],15.3 µM
same,IC50,[2]; [3],0.028 µM
O=C(CP(=O)(O)O)NCCCc1cccc(Oc2ccc(Cl)c(Cl)c2)c1 [compound 886],IC50,[1],7 µM
same,IC50,[2]; [3],0.04 µM
1-Phosphono-4-[3-(4-fluorophenoxy)-6-methoxy-phenyl]butylsulfonic acid tripotassium salt [Compound 36],IC50,[2]; [7],13.8 µM
"O=P([O-])([O-])C(CCCc1ccc(Oc2ccccc2)cc1)S(=O)(=O)[O-].[K+].[K+].[K+] (centres unmarked) [Compound 18, 1-Phosphono-4-(4-phenoxyphenyl)butylsulfonic acid tripotassium salt]",IC50,[2]; [5],0.19 µM
"CCCOc1cccc(-c2ccc(CCCC(P(=O)(O)O)S(=O)(=O)O)cc2)c1 (centres unmarked) [Compound 13, 1-Phosphono-4-[4-(3-propoxyphenyl)phenyl]butylsulfonic acid tripotassium salt]",IC50,[1]; [8],123 µM
same,IC50,[2]; [5],0.49 µM
1-Phosphono-4-[3-(4-chlorophenoxy)phenyl]butylsulfonic acid tripotassium salt [Compound 24],CrtM enzyme experimental activity pIC50,[1]; Table 5,5.6
same,IC50,[1]; [4],2.5 µM
same,IC50,[1]; [8],2.5 µM
same,IC50,[2]; [7],0.039 µM
"1-Phosphono-4-[3-(3,4-dichlorophenoxy)phenyl]butylsulfonic acid tripotassium salt [Compound 31]",CrtM enzyme experimental activity pIC50,[1]; Table 5,5.65
same,IC50,[1]; [4],2.2 µM
same,IC50,[1]; [8],2.2 µM
same,IC50,[2]; [7],0.011 µM
1-Phosphono-4-[3-(4-hydroxyphenoxy)phenyl]butylsulfonic acid tripotassium salt [Compound 27],IC50,[2]; [7],6.8 µM
O=C(O)CC(=O)NCCCc1cccc(Oc2ccccc2)c1 [compound 888],IC50,[1],> 1500 µM
1-Phosphono-4-[3-(3-fluorophenoxy)phenyl]butylsulfonic acid tripotassium salt [Compound 20],CrtM enzyme experimental activity pIC50,[1]; Table 5,5.66
same,IC50,[1]; [4],2.2 µM
same,IC50,[1]; [8],2.2 µM
same,IC50,[2]; [7],0.22 µM
"O=P([O-])([O-])C(CCCc1cccc(Oc2ccccc2Cc2ccccc2)c1)S(=O)(=O)[O-].[K+].[K+].[K+] (centres unmarked) [Compound 8, 1-Phosphono-4-[3-(2-benzylphenoxy)phenyl]butylsulfonic acid tripotassium salt]",CrtM enzyme experimental activity pIC50,[1]; Table 5,4.43
same,less active than 1 in CrtM inhibition,"[1]; fold, versus 1",~5 ×
same,IC50,[2]; [5],0.019 µM
"O=P(O)(O)C(CCCc1ccc(-c2ccccc2)cc1)P(=O)(O)O [Compound 2, 4-(4-Biphenyl)butyldiphosphonic acid tetrapotassium salt]",IC50,[1],0.48 µM
same,Ki,[1],~0.001 µM
same,IC50,[1]; read-out: IC50 against CrtM,0.5 µM
same,IC50,[2]; [5],2.2 µM
"CP(=O)([O-])C(CCCc1ccc(-c2ccccc2)cc1)P(=O)([O-])[O-].[K+].[K+].[K+] (centres unmarked) [Compound 4, dipotassium salt]",IC50,[2]; [5],1.4 µM
"1-Phosphono-4-[3-(3,5-dichlorophenoxy)phenyl]butylsulfonic acid tripotassium salt [Compound 34]",CrtM enzyme experimental activity pIC50,[1]; Table 5,5.2
same,IC50,[1]; [4],6.3 µM
same,IC50,[1]; [8],6.3 µM
same,IC50,[2]; [7],0.051 µM
"O=P([O-])([O-])[C@H](CCCc1cccc(Oc2ccccc2)c1)S(=O)(=O)[O-].[K+].[K+].[K+] [Compound (S)-1, (1S)-1-Phosphono-4-(3-phenoxyphenyl)butylsulfonic acid tripotassium salt]",more active than its (R)-enantiomer in CrtM inhibition,"[1]; fold, versus (R)-1",~30 ×
same,IC50,[1]; read-out: IC50 against CrtM,1.4 µM
same,IC50,[2]; [5],0.05 µM
O=C(NO)C(CCCc1cccc(Oc2ccccc2)c1)P(=O)(O)O (centres unmarked) [compound 809],IC50,[1],859 µM
same,IC50,[2]; [3],4.23 µM
"1-Phosphono-4-[3-(3,4-difluorophenoxy)phenyl]butylsulfonic acid tripotassium salt [Compound 30]",CrtM enzyme experimental activity pIC50,[1]; Table 5,5.76
same,IC50,[1]; [4],1.7 µM
same,IC50,[1]; [8],1.7 µM
same,IC50,[2]; [7],0.11 µM
"O=P([O-])([O-])C(CCCc1ccc(-c2ccccc2)cc1)S(=O)(=O)[O-].[K+].[K+].[K+] (centres unmarked) [Compound 9, 1-Phosphono-4-(4-biphenyl)butylsulfonic acid tripotassium salt]",IC50,[2]; [5],0.35 µM
"O=P(O)(O)[C@@H](CCCc1cccc(Oc2ccccc2)c1)S(=O)(=O)O [Compound (R)-1, (1R)-1-Phosphono-4-(3-phenoxyphenyl)butylsulfonic acid tripotassium salt]",IC50,[2]; [5],0.31 µM
"O=P(O)(O)C(CCCc1cccc(Cc2ccccc2)c1)S(=O)(=O)O (centres unmarked) [Compound 17, 1-Phosphono-4-(3-benzylphenyl)butylsulfonic acid tripotassium salt]",IC50,[1]; [8],20.4 µM
same,IC50,[2]; [5],0.17 µM
O=C(CP(=O)(O)O)NCCCCc1cccc(Oc2ccccc2)c1 [compound 898],IC50,[1],1080 µM
same,IC50,[2]; [3],35 µM
1-Phosphono-4-[3-(3-trifluoromethylphenoxy)phenyl]butylsulfonic acid tripotassium salt [Compound 22],CrtM enzyme experimental activity pIC50,[1]; Table 5,5.01
same,IC50,[1]; [4],9.8 µM
same,IC50,[1]; [8],9.8 µM
same,IC50,[2]; [7],0.074 µM
O=C(CP(=O)(O)O)N(O)Cc1cccc(-c2cccc(-c3ccccc3)c2)c1 [compound 810],IC50,[1],597 µM
same,IC50,[2]; [3],158 µM
CN(CCCc1cccc(Oc2ccccc2)c1)C(=O)CP(=O)(O)O [compound 848],IC50,[1],193 µM
same,IC50,[2]; [3],8.6 µM
1-Phosphono-4-[3-(4-fluorophenoxy)-6-fluoro-phenyl]butylsulfonic acid tripotassium salt [Compound 35],CrtM enzyme experimental activity pIC50,[1]; Table 5,5.68
same,IC50,[1]; [4],2.1 µM
same,IC50,[1]; [8],2.1 µM
same,IC50,[2]; [7],0.059 µM
"O=P(O)(O)C(CCCc1cccc(Oc2ccc(Cc3ccccc3)cc2)c1)S(=O)(=O)O (centres unmarked) [Compound 26, 1-Phosphono-4-[3-(4-benzylphenoxy)phenyl]butylsulfonic acid tripotassium salt]",IC50,"[1]; read-out: IC50 (CrtM), Table 1",13.5 µM
same,IC50,[2]; [5],0.049 µM
same,IC50,[2]; [6],0.049 µM
O=P(O)(O)CS(=O)(=O)NCCCc1cccc(Oc2ccccc2)c1 [compound 841],IC50,[1],1640 µM
same,IC50,[2]; [3],> 500 µM
1-Phosphono-4-[3-[4-(furan-2-yl)phenoxy]phenyl]butylsulfonic acid tripotassium salt [Compound 29],CrtM enzyme experimental activity pIC50,[1]; Table 5,4.58
same,IC50,[1]; [4],26.3 µM
same,IC50,[1]; [8],26.3 µM
same,IC50,[2]; [7],1.1 µM
1-Phosphono-4-[3-(2-trifluoromethylphenoxy)phenyl]butylsulfonic acid tripotassium salt [Compound 23],CrtM enzyme experimental activity pIC50,[1]; Table 5,4.27
same,IC50,[1]; [4],53.7 µM
same,IC50,[1]; [8],53.7 µM
same,IC50,[2]; [7],0.46 µM
"O=P(O)(O)C(CCCc1cccc(Nc2ccccc2)c1)S(=O)(=O)O (centres unmarked) [Compound 16, 1-Phosphono-4-(3-phenylaminophenyl)butylsulfonic acid tripotassium salt]",IC50,[1]; read-out: IC50 against CrtM,43.7 µM
same,IC50,[2]; [5],0.5 µM
1-Phosphono-4-[3-(4-phenoxyphenoxy)phenyl]butylsulfonic acid tripotassium salt [Compound 28],IC50,[2]; [7],0.1 µM
"CCn1c2ccccc2c2cc(CCCC(P(=O)(O)O)S(=O)(=O)O)ccc21 (centres unmarked) [Compound 19, 1-Phosphono-4-(9-ethylcarbazole-3-yl)butylsulfonic acid tripotassium salt]",IC50,[2]; [5],263 µM
"CCCc1ccc(Oc2cccc(CCCC(P(=O)([O-])[O-])S(=O)(=O)[O-])c2)cc1.[K+].[K+].[K+] (centres unmarked) [Compound 6, 1-Phosphono-4-[3-(4-propylphenoxy)phenyl]butylsulfonic acid tripotassium salt]",Ki,[1],~0.005 µM
same,as active as 1 in CrtM inhibition,"[1]; fold more active, versus 1",~4 ×
same,IC50,"[1]; read-out: IC50 (CrtM), Table 1",2.2 µM
same,IC50,[2]; [5],0.093 µM
same,IC50,[2]; [6],0.1 µM
same,IC50,"[2]; Staphylococcus aureus, read-out: IC50 for STX biosynthesis",0.093 µM
O=C(CP(=O)(O)O)NCCCc1ccc(-c2ccccc2)cc1 [compound 846],IC50,[1],165 µM
